From patent US9328138B2 (priority 2011, dated 2016)
Structures can show the parent of a compound that is named as a salt.

How the values were obtained:
[1] = biological target: HCV NS3 protease genotype 3a (3A-1) (Hepatitis C virus genotype 3a, UniProt Q81258); test: HCV NS3 protease time-resolved fluorescence (TRF) assay, genotype 3a; format: biochemical; conditions: Ki 3a
Outline: (§1)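 IC50 values derive from 4-parameter fitting of TRF signal after a 6 h room-temperature cleavage of 25 nM peptide substrate by NS3/NS4A that had been pre-incubated 10 min with compound.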

[2] = biological target: T1, HCV genotype 1b (BK) NS3 modified enzyme with a R155K mutation (Hepatitis C virus genotype 1b, UniProt P26663, R1181K); test: HCV NS3 protease time-resolved fluorescence (TRF) assay, genotype 1b R155K; format: biochemical; conditions: Ki 1b R155K
T1 construct: HCV genotype 1b (BK) NS3 modified enzyme
Outline: as §1

[3] = first of two values printed in the cell (not explained)
[4] = second of two values printed in the cell (not explained)
[5] = genotype 1b (BK) NS3 R155K, single value

Structure (SMILES) | Ki [1] [nM] | Ki [2, 3] [nM] | Ki [2, 4] [nM] | Ki [2, 5] [nM]
C=C[C@@H]1C[C@]1(NC(=O)[C@@H]1C[C@@H]2CN1C(=O)[C@H](C1(C)CCCCC1)NC(=O)O[C@@H]1C[C@H]1CCCCCc1c(nc3ccccc3c1OCCCN1CCCOCC1)O2)C(=O)NS(=O)(=O)C1(C)CC1 [Example 270, (1aR,5S,8S,10R,22aR)—N-[(1R,2S)-2-ethenyl-1-{[(1-methylcyclopropyl)sulfonyl]carbamoyl}cyclopropyl]-5-(1-methylcyclohexyl)-17-[3-(1,4-oxazepan-4-yl)propoxy]-3,6-dioxo-1,1a,3,4,5,6,9,10,18,19,20,21,22,22a-tetradecahydro-8H-7,10-methanocyclopropa[18,19][1,10,3,6]dioxadiazacyclononadecino[11,12-b]quinoline-8-carboxamide] | 1.4 | 0.021 | 0.18 | –
C=C[C@@H]1C[C@]1(NC(=O)[C@@H]1C[C@@H]2CN1C(=O)[C@H](C(C)(C)C)NC(=O)O[C@@H]1C[C@H]1CCCCCc1c(nc3ccccc3c1OCCCN(C)Cc1nc3cc(C)ccc3[nH]1)O2)C(=O)NS(=O)(=O)C1(C)CC1 [Example 191, (1aR,5S,8S,10R,22aR)-5-tert-butyl-N-[(1R,2S)-2-ethenyl-1-{[(1-methylcyclopropyl)sulfonyl]carbamoyl}cyclopropyl]-17-(3-{methyl[(5-methyl-1H-benzimidazol-2-yl)methyl]amino}propoxy)-3,6-dioxo-1,1a,3,4,5,6,9,10,18,19, 20,21,22,22a-tetradecahydro-8H-7,10-methano cyclopropa[18,19][1,10,3,6] dioxadiazacyclononadecino[11,12-b] quinoline-8-carboxamide] | 1.5 | – | – | 0.16
C=C[C@@H]1C[C@]1(NC(=O)[C@@H]1C[C@@H]2CN1C(=O)[C@H](C(C)(C)C)NC(=O)O[C@@H]1C[C@H]1CCCCCc1c(nc3cc(C(C)C)ccc3c1OCCN1CCOCC1)O2)C(=O)NS(=O)(=O)C1(C)CC1 [Example 132, (1aR,5S,8S,10R,22aR)-5-tert-butyl-N-[(1R,2S)-2-ethenyl-1-{[(1-methylcyclopropyl)sulfonyl]carbamoyl}cyclopropyl]-17-[2-(morpholin-4-yl)ethoxy]-3,6-dioxo-14-(propan-2-yl)-1,1a,3,4,5,6,9,10,18,19,20,21,22,22a-tetradecahydro-8H-7,10-methanocyclopropa[18,19][1,10,3,6]dioxadiazacyclononadecino[11,12-b]quinoline-8-carboxamide] | 6.8 | – | – | 0.39
C=C[C@@H]1C[C@]1(NC(=O)[C@@H]1C[C@@H]2CN1C(=O)[C@H](C(C)(C)C)NC(=O)O[C@@H]1CCC[C@H]1CCCCCc1c(nc3ccccc3c1OCCN1CCOCC1)O2)C(=O)NS(=O)(=O)N1CCOCC1 [Example 112, (3aR,7S,10S,12R,24aR)-7-tert-butyl-N-{(1R,2S)-2-ethenyl-1-[(morpholin-4-ylsulfonyl)carbamoyl]cylcopropyl}-19-[2-(morpholin-4-yl)ethoxy]-5,8-dioxo-1,2,3,3a,5,6,7,8,11,12,20,21,22,23,24,24a-hexadecahydro-10H-9,12-methanocyclopenta[18,19] [1,10,3,6] dioxadiazacyclononadecino [11,12-b]quinoline-10-carboxamide] | 620 | – | – | 24
C=C[C@@H]1C[C@]1(NC(=O)[C@@H]1C[C@@H]2CN1C(=O)[C@H](C1CCCCC1)NC(=O)O[C@@H]1C[C@H]1CCCCCc1c(nc3ccccc3c1OC1CCN(CC)CC1)O2)C(=O)NS(=O)(=O)C1(C)CC1 [Example 239, 4-{[(1aR,5S,8S,10R,22aR)-5-cyclohexyl-8-{[(1R,2S)-2-ethenyl-1-{[(1-methylcyclopropyl)sulfonyl]carbamoyl}cyclopropyl]carbamoyl}-3,6-dioxo-1,1a,3,4,5,6,9,10,18,19,20,21,22,22a-tetradecahydro-8H-7,10-methanocyclopropa[18,19][1,10,3,6]dioxadiazacyclononadecino[11,12-b]quinolin-17-yl]oxy}-1-ethylpiperidinium formate] | 0.278 | 0.016 | 0.064 | –
C=C[C@@H]1C[C@]1(NC(=O)[C@@H]1C[C@@H]2CN1C(=O)[C@H](C(C)(C)C)NC(=O)O[C@@H]1C[C@H]1CCCCCc1c(nc3ccccc3c1OCCCN(C)Cc1ccn[nH]1)O2)C(=O)NS(=O)(=O)C1(C)CC1 [Example 202, (1aR,5S,8S,10R,22aR)-5-tert-butyl-N-[(1R,2S)-2-ethenyl-1-{[(1-methylcyclopropyl)sulfonyl]carbamoyl}cyclopropyl]-17-{3-[methyl(1H-pyrazol-5-ylmethyl)amino]propoxy}-3,6-dioxo-1,1a,3,4,5,6,9,10,18, 19,20,21,22,22a-tetradecahydro-8H-7,10-methanocyclopropa[18,19][1,10,3,6] dioxadiazacyclononadecino[11,12-b] quinoline-8-carboxamide] | 0.95 | – | – | 0.05
COc1c2c(nc3ccccc13)O[C@@H]1C[C@H]3C(=O)N[C@]4(C(=O)NS(=O)(=O)C5(C)CC5)C[C@H]4/C=C\CCCCC[C@H](NC(=O)O[C@@H]4C[C@H]4CCC/C=C/2)C(=O)N3C1 [Example 300, (1aR,5S,11Z,12aS,13aR,16S,19R,27E,31aR)-26-methoxy-N-[(1-methylcyclopropyl)sulfonyl]-3,15,33-trioxo-1,1a,3,4,5,6,7,8,9,10,12a,13,15,16,18,19,29,30,31,31a-icosahydro-5,17:16,19-dimethanodicyclopropa[12,13:28,29][1,20,3,14,17]dioxatriazacyclononacosino[21,22-b]quinoline-13a(14H)-carboxamide] | 7.1 | – | – | 0.23
C=C[C@@H]1C[C@]1(NC(=O)[C@@H]1C[C@@H]2CN1C(=O)[C@H](C(C)(C)C)NC(=O)O[C@@H]1C[C@H]1CCCCCc1c(nc3ccccc3c1OCC1CCN(C)C1)O2)C(=O)NS(=O)(=O)C1(C)CC1 (stereo partly drawn) [Example 141, (1aR,5S,8S,10R,22aR)-5-tert-butyl-N-[(1R,2S)-2-ethenyl-1-{[(1-methylcyclopropyl)sulfonyl]carbamoyl}cyclopropyl]-17-[(1-methylpyrrolidin-3-yl)methoxy]-3,6-dioxo-1,1a,3,4,5,6,9,10,18,19,20,21,22,22a-tetradecahydro-8H-7,10-methanocyclopropa[18,19][1,10,3,6] dioxadiazacyclononadecino [11,12-b]quinoline-8-carboxamide] | 0.33 | – | – | 0.066
C=C[C@@H]1C[C@]1(NC(=O)[C@@H]1C[C@@H]2CN1C(=O)[C@H](C(C)(C)C)NC(=O)O[C@@H]1C[C@H]1CCCCCc1c(nc3ccccc3c1OCCCN1CC3CCC1C3)O2)C(=O)NS(=O)(=O)C1(C)CC1 [Example 196, (1aR,5S,8S,10R,22aR)-17-[3-(2-azabicyclo[2.2.1]hept-2-yl)propxy]-5-tert-butyl-N-[(1R,2S)-2-ethenyl-1-{[(1-methylcyclopropyl)sulfonyl]carbamoyl}cyclopropyl]-3,6-dioxo-1,1a, 3,4,5,7,9,10,18,19,20,21,22,22a-tetradecahydro-8H-7,10-methanocyclopropa[18,19][1,10,3,6] dioxadiazacyclononadecino[11,12-b] quinoline-8-carboxamide] | 0.85 | – | – | 0.1
